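Exposure lasted 48 hours, with cells grown in 96-well plates and compounds tested at five concentrations. GI50 = concentration required for 50% inhibition of growth.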 Calls of active or inactive are those of the source. Cut-off read from the data, not from the text of the source: active = GI50 up to about 1.1 µM and inactive = higher.
Tests used:
Test in all cases: NCI-60 cell line screen, 48 h
[1] = tested on: PC-3
[2] = tested on: UACC-62
[3] = tested on: HL-60
[4] = tested on: SF-539
[5] = tested on: LOX IMVI
[6] = tested on: CCRF-CEM
[7] = tested on: NCI-H460
[8] = tested on: CAKI-1
[9] = tested on: OVCAR-4
[10] = tested on: NCI-H226
[11] = tested on: SNB-19
[12] = tested on: SK-MEL-5
[13] = tested on: 786-0
[14] = tested on: HT-29
[15] = tested on: A498
[16] = tested on: SR
[17] = tested on: TK-10
[18] = tested on: HOP-62
[19] = tested on: SNB-75

| Structure (SMILES) | GI50 [1] | GI50 [2] | GI50 [3] | GI50 [4] | GI50 [5] | GI50 [6] | GI50 [7] | GI50 [8] | GI50 [9] | GI50 [10] | GI50 [11] | GI50 [12] | GI50 [13] | GI50 [14] | GI50 [15] | GI50 [16] | GI50 [17] | GI50 [18] | GI50 [19] |
| --- | --- | --- | --- | --- | --- | --- | --- | --- | --- | --- | --- | --- | --- | --- | --- | --- | --- | --- | --- |
| COc1cc(C(=O)OCCn2[nH]c(-c3ccc(Cl)cc3)nc2=S)cc(OC)c1OC | > 100 µM (inactive) | > 100 µM (inactive) | 38.9 µM (inactive) | 60.8 µM (inactive) | 72.4 µM (inactive) | 33 µM (inactive) | > 100 µM (inactive) | 37.7 µM (inactive) | 95.5 µM (inactive) | 58.7 µM (inactive) | > 100 µM (inactive) | 48.2 µM (inactive) | 62.8 µM (inactive) | > 100 µM (inactive) | > 100 µM (inactive) | 37.8 µM (inactive) | 54.3 µM (inactive) | > 100 µM (inactive) | – |
| COc1c2cc(C(C)(C)C)cc1CSCc1cc(C(C)(C)C)cc(c1OC)CCCCC2 | 22.4 µM (inactive) | 29.7 µM (inactive) | > 50 µM (inactive) | 19.6 µM (inactive) | – | 33.1 µM (inactive) | 31.6 µM (inactive) | – | – | 20.5 µM (inactive) | 20.2 µM (inactive) | 24.1 µM (inactive) | > 50 µM (inactive) | > 50 µM (inactive) | 38.6 µM (inactive) | > 50 µM (inactive) | 31.9 µM (inactive) | > 50 µM (inactive) | > 50 µM (inactive) |
| CCOP(=O)(CC1CC(O)(CNc2cc(Cl)nc(N)n2)C1)OCC (centres undefined) | > 100 µM (inactive) | > 100 µM (inactive) | > 100 µM (inactive) | > 100 µM (inactive) | > 100 µM (inactive) | > 100 µM (inactive) | > 100 µM (inactive) | > 100 µM (inactive) | > 100 µM (inactive) | > 100 µM (inactive) | – | > 100 µM (inactive) | > 100 µM (inactive) | > 100 µM (inactive) | > 100 µM (inactive) | > 100 µM (inactive) | > 100 µM (inactive) | > 100 µM (inactive) | > 100 µM (inactive) |
| Cc1c(C)c(C)c(-n2[nH]c(=O)n(C)c2=O)c(C)c1C | > 100 µM (inactive) | > 100 µM (inactive) | > 100 µM (inactive) | > 100 µM (inactive) | > 100 µM (inactive) | > 100 µM (inactive) | > 100 µM (inactive) | > 100 µM (inactive) | – | > 100 µM (inactive) | > 100 µM (inactive) | > 100 µM (inactive) | > 100 µM (inactive) | > 100 µM (inactive) | > 100 µM (inactive) | > 100 µM (inactive) | > 100 µM (inactive) | > 100 µM (inactive) | > 100 µM (inactive) |
| COC(=O)/C=C(\S/C(=N\n1cc(C(=O)OC)c(C(=O)OC)c1-c1ccc(C)cc1)c1ccc(C)cc1)C(=O)OC | 5.28 µM (inactive) | 12 µM (inactive) | 4.62 µM (inactive) | 17.9 µM (inactive) | 2.84 µM (inactive) | 0.34 µM (active) | 17.7 µM (inactive) | – | 1.58 µM (inactive) | 1.7 µM (inactive) | 34 µM (inactive) | 13.4 µM (inactive) | 4.44 µM (inactive) | 4.91 µM (inactive) | 12.8 µM (inactive) | 1.16 µM (inactive) | 3.03 µM (inactive) | 16.9 µM (inactive) | 11.5 µM (inactive) |
| CCOC(=O)C1=C(C#N)S(=O)(=O)c2c(oc(C)c2C)N1 | > 100 µM (inactive) | > 100 µM (inactive) | – | > 100 µM (inactive) | > 100 µM (inactive) | – | > 100 µM (inactive) | > 100 µM (inactive) | > 100 µM (inactive) | > 100 µM (inactive) | > 100 µM (inactive) | > 100 µM (inactive) | > 100 µM (inactive) | > 100 µM (inactive) | > 100 µM (inactive) | > 100 µM (inactive) | > 100 µM (inactive) | > 100 µM (inactive) | > 100 µM (inactive) |
| O=S(=O)(c1cc(Cl)ccc1Cl)N1CCN(c2ccc(Cl)c(Cl)c2)CC1 | 99.8 µM (inactive) | – | > 100 µM (inactive) | 25.2 µM (inactive) | > 100 µM (inactive) | 44.8 µM (inactive) | > 10 µM (inactive) | 22 µM (inactive) | 16.1 µM (inactive) | 21.7 µM (inactive) | 14.1 µM (inactive) | 22.8 µM (inactive) | 17.9 µM (inactive) | 88.1 µM (inactive) | 25.5 µM (inactive) | > 100 µM (inactive) | 20.6 µM (inactive) | 18.2 µM (inactive) | 14 µM (inactive) |
| CC1=NN(c2cccc(Cl)c2)C2(SCC(=O)N2c2nc3ccccc3s2)/C1=C\c1cccs1 (centres undefined) | 25.5 µM (inactive) | – | 27.9 µM (inactive) | 5.01 µM (inactive) | 23.8 µM (inactive) | – | 27.2 µM (inactive) | 29.7 µM (inactive) | 21 µM (inactive) | 20.3 µM (inactive) | – | 18.1 µM (inactive) | 19.5 µM (inactive) | 21.6 µM (inactive) | 25.4 µM (inactive) | 11.7 µM (inactive) | 31.7 µM (inactive) | 28.2 µM (inactive) | 17.5 µM (inactive) |
| COc1ccc(C2SC(=N)Nc3c2c(C)nn3C(=O)c2ccccc2O)cc1OC (centres undefined) | 4.5 µM (inactive) | 2.64 µM (inactive) | 2.16 µM (inactive) | 2.84 µM (inactive) | 4.58 µM (inactive) | 4.93 µM (inactive) | 4.68 µM (inactive) | 6.59 µM (inactive) | 7.93 µM (inactive) | 4.32 µM (inactive) | 5.42 µM (inactive) | – | 7.1 µM (inactive) | > 10 µM (inactive) | 5.93 µM (inactive) | 4.75 µM (inactive) | > 10 µM (inactive) | 6.92 µM (inactive) | 3.09 µM (inactive) |
| O=c1c2cc([N+](=O)[O-])ccc2oc2nc3n(c(=O)c12)CCCS3 | > 100 µM (inactive) | > 100 µM (inactive) | – | > 100 µM (inactive) | – | > 100 µM (inactive) | > 100 µM (inactive) | > 100 µM (inactive) | > 100 µM (inactive) | > 100 µM (inactive) | > 100 µM (inactive) | > 100 µM (inactive) | 66.8 µM (inactive) | – | > 100 µM (inactive) | > 100 µM (inactive) | > 100 µM (inactive) | 40.9 µM (inactive) | 64.9 µM (inactive) |
| CCN(CC)CCC1CCCCN1CC(=O)N1c2ccccc2NC(=O)CC1C (centres undefined) | > 100 µM (inactive) | > 100 µM (inactive) | > 100 µM (inactive) | > 100 µM (inactive) | > 100 µM (inactive) | > 100 µM (inactive) | > 100 µM (inactive) | > 100 µM (inactive) | > 100 µM (inactive) | > 100 µM (inactive) | > 100 µM (inactive) | > 100 µM (inactive) | > 100 µM (inactive) | > 100 µM (inactive) | > 100 µM (inactive) | > 100 µM (inactive) | > 100 µM (inactive) | > 100 µM (inactive) | 0.0933 µM (active) |
| O=C(CC(O)(C(F)(F)Cl)C(F)(F)Cl)CC(O)(C(F)(F)Cl)C(F)(F)Cl | 1.11 µM (active) | 0.738 µM (active) | 1.78 µM (inactive) | 2.95 µM (inactive) | 3.83 µM (inactive) | 2.29 µM (inactive) | 1.24 µM (inactive) | 2 µM (inactive) | 1.33 µM (inactive) | 1.33 µM (inactive) | 1.71 µM (inactive) | 1.25 µM (inactive) | 2.89 µM (inactive) | 1.65 µM (inactive) | 2.21 µM (inactive) | 2.65 µM (inactive) | 1.81 µM (inactive) | 1.98 µM (inactive) | 1.76 µM (inactive) |
| COC(=O)C1C(C(=O)OC)C2(OC(c3ccc(Cl)cc3)=CC2=O)C12OC(c1ccc(Cl)cc1)=CC2=O (centres undefined) | 21.8 µM (inactive) | 14.6 µM (inactive) | 2.81 µM (inactive) | 18.3 µM (inactive) | 23.1 µM (inactive) | 3.01 µM (inactive) | 19.8 µM (inactive) | 22 µM (inactive) | 19.9 µM (inactive) | 28.4 µM (inactive) | 43.2 µM (inactive) | 19.3 µM (inactive) | 16.6 µM (inactive) | 16.7 µM (inactive) | 29.9 µM (inactive) | 1.96 µM (inactive) | 22.6 µM (inactive) | > 10 µM (inactive) | – |
| Nc1nc(Cl)c(CO)c(NCC2(CO)CC(CCc3ccccc3)C2)n1 (centres undefined) | 51.3 µM (inactive) | – | 3.4 µM (inactive) | 21.9 µM (inactive) | 12.5 µM (inactive) | 16.5 µM (inactive) | 13.1 µM (inactive) | 37.8 µM (inactive) | 14.4 µM (inactive) | 13.3 µM (inactive) | 61.5 µM (inactive) | 17.3 µM (inactive) | 31.8 µM (inactive) | 22.2 µM (inactive) | 22.2 µM (inactive) | 4.82 µM (inactive) | 80.2 µM (inactive) | 25.4 µM (inactive) | 16.1 µM (inactive) |
| CCCc1cc2c(cc1O)CC[C@@H]1[C@@H]2CC[C@]2(C)[C@@H](O)CC[C@@H]12 | 13.4 µM (inactive) | – | 12.6 µM (inactive) | 10.8 µM (inactive) | 10.5 µM (inactive) | 5.41 µM (inactive) | 10.7 µM (inactive) | 11.3 µM (inactive) | 17.7 µM (inactive) | 13.4 µM (inactive) | 12.9 µM (inactive) | 10.5 µM (inactive) | 13.6 µM (inactive) | 16.3 µM (inactive) | 17.9 µM (inactive) | 3.61 µM (inactive) | 16.2 µM (inactive) | – | 13.5 µM (inactive) |

— ChEMBL document CHEMBL1201862, “PubChem BioAssay data set” (2004)
